From ChEMBL document CHEMBL1201862, “PubChem BioAssay data set” (2004)
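How tested: cells in 96-well plates exposed to compound for 48 hours at five concentrations. GI50 is the concentration that inhibits growth by half.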 The source made the active and inactive calls. Cut-off read from the data, not from the text of the source: active = GI50 up to about 1.1 µM and inactive = higher.

Legend:
Experiment in all cases: DTP human tumour cell line panel, 48 h
[1] = tested on: OVCAR-3
[2] = tested on: Malme-3M
[3] = tested on: TK-10
[4] = tested on: RXF 631
[5] = tested on: ACHN
[6] = tested on: COLO 205
[7] = tested on: DMS-273
[8] = tested on: HOP-18
[9] = tested on: SNB-75
[10] = tested on: NCI-H226
[11] = tested on: NCI-H522
[12] = tested on: LOX IMVI
[13] = tested on: HL-60
[14] = tested on: 786-0
[15] = tested on: MOLT-4
[16] = tested on: SK-MEL-5
[17] = tested on: CAKI-1
[18] = tested on: U-251
[19] = tested on: UACC-62
[20] = tested on: SK-OV-3
[21] = tested on: NCI-H23
[22] = tested on: A549
[23] = tested on: DLD-1
[24] = tested on: KM-20L2
[25] = tested on: RXF 393
[26] = tested on: HOP-92
[27] = tested on: DMS-114
[28] = tested on: SN12C
[29] = tested on: SW-620
[30] = tested on: UACC-257
[31] = tested on: A498
[32] = tested on: OVCAR-5
[33] = tested on: SK-MEL-28
[34] = tested on: CCRF-CEM
[35] = tested on: IGROV-1
[36] = tested on: EKVX
[37] = tested on: HCT-15
[38] = tested on: KM12
[39] = tested on: UO-31
[40] = tested on: SF-539
[41] = tested on: K562
[42] = tested on: M19-MEL
[43] = tested on: OVCAR-8
[44] = tested on: HOP-62
[45] = tested on: SF-295
[46] = tested on: SK-MEL-2
[47] = tested on: SNB-78
[48] = tested on: HCC 2998
[49] = tested on: RPMI-8226
[50] = tested on: SF-268
[51] = tested on: NCI-H460
[52] = tested on: HCT-116
[53] = tested on: M14
[54] = tested on: HT-29
[55] = tested on: XF498
[56] = tested on: LXFL 529
[57] = tested on: SNB-19

## COc1cc(/C=C/C(=O)c2sc(-n3nc(-c4ccccc4)cc3-c3ccccc3)nc2C)ccc1O
[1]
  GI50: > 100 µM (inactive)
[2]
  GI50: > 100 µM (inactive)
[3]
  GI50: > 100 µM (inactive)
[4]
  GI50: > 100 µM (inactive)
[5]
  GI50: > 100 µM (inactive)
[6]
  GI50: > 100 µM (inactive)
[7]
  GI50: > 100 µM (inactive)
[8]
  GI50: 26.5 µM (inactive)
[9]
  GI50: 7.36 µM (inactive)
[10]
  GI50: > 100 µM (inactive)
[11]
  GI50: 14.5 µM (inactive)
[12]
  GI50: > 100 µM (inactive)
[13]
  GI50: 49.9 µM (inactive)
[14]
  GI50: > 100 µM (inactive)
[15]
  GI50: 17.5 µM (inactive)
[16]
  GI50: 55.2 µM (inactive)
[17]
  GI50: 6.64 µM (inactive)
[18]
  GI50: > 100 µM (inactive)
[19]
  GI50: > 100 µM (inactive)
[20]
  GI50: > 100 µM (inactive)
[21]
  GI50: > 100 µM (inactive)
[22]
  GI50: > 100 µM (inactive)
[23]
  GI50: > 100 µM (inactive)
[24]
  GI50: > 100 µM (inactive)
[25]
  GI50: 13 µM (inactive)
[26]
  GI50: 2.47 µM (inactive)
[27]
  GI50: 5.35 µM (inactive)
[28]
  GI50: > 100 µM (inactive)
[29]
  GI50: > 100 µM (inactive)
[30]
  GI50: > 100 µM (inactive)
[31]
  GI50: > 100 µM (inactive)
[32]
  GI50: > 100 µM (inactive)
[33]
  GI50: > 100 µM (inactive)
[34]
  GI50: > 100 µM (inactive)
[35]
  GI50: 94.6 µM (inactive)
[36]
  GI50: 4.7 µM (inactive)
[37]
  GI50: 28.5 µM
[38]
  GI50: 15.5 µM (inactive)
[39]
  GI50: > 100 µM (inactive)
[40]
  GI50: > 100 µM (inactive)
[41]
  GI50: 32.7 µM (inactive)
[42]
  GI50: > 100 µM (inactive)
[43]
  GI50: > 100 µM (inactive)
[44]
  GI50: > 100 µM (inactive)
[45]
  GI50: 57 µM (inactive)
[46]
  GI50: > 100 µM (inactive)
[47]
  GI50: > 100 µM (inactive)
[48]
  GI50: > 100 µM (inactive)
[49]
  GI50: > 100 µM (inactive)
[50]
  GI50: > 100 µM (inactive)
[51]
  GI50: > 100 µM (inactive)

## CN(/N=C\c1ccnc2ccccc12)c1ccc([N+](=O)[O-])cc1
[1]
  GI50: > 100 µM (inactive)
[2]
  GI50: > 100 µM (inactive)
[3]
  GI50: > 100 µM (inactive)
[4]
  GI50: > 100 µM (inactive)
[5]
  GI50: > 100 µM (inactive)
[6]
  GI50: > 100 µM (inactive)
[7]
  GI50: 42.5 µM (inactive)
[9]
  GI50: > 100 µM (inactive)
[10]
  GI50: > 100 µM (inactive)
[12]
  GI50: 8.2 µM (inactive)
[13]
  GI50: 37.1 µM (inactive)
[14]
  GI50: > 100 µM (inactive)
[15]
  GI50: > 100 µM (inactive)
[16]
  GI50: 53.8 µM (inactive)
[17]
  GI50: > 100 µM (inactive)
[52]
  GI50: 11.6 µM (inactive)
[18]
  GI50: 8.77 µM (inactive)
[19]
  GI50: 84.7 µM (inactive)
[20]
  GI50: > 100 µM (inactive)
[21]
  GI50: > 100 µM (inactive)
[22]
  GI50: > 100 µM (inactive)
[24]
  GI50: > 100 µM (inactive)
[25]
  GI50: > 10 µM (inactive)
[26]
  GI50: > 100 µM (inactive)
[28]
  GI50: > 100 µM (inactive)
[29]
  GI50: 65 µM (inactive)
[53]
  GI50: 97.1 µM (inactive)
[54]
  GI50: > 100 µM (inactive)
[30]
  GI50: > 100 µM (inactive)
[31]
  GI50: > 100 µM (inactive)
[32]
  GI50: > 100 µM (inactive)
[33]
  GI50: > 100 µM (inactive)
[34]
  GI50: 19.5 µM (inactive)
[35]
  GI50: > 100 µM (inactive)
[55]
  GI50: > 100 µM (inactive)
[56]
  GI50: 54.8 µM (inactive)
[36]
  GI50: > 100 µM (inactive)
[37]
  GI50: > 100 µM
[38]
  GI50: 16 µM (inactive)
[40]
  GI50: 27 µM (inactive)
[41]
  GI50: 25.3 µM (inactive)
[42]
  GI50: 65.3 µM (inactive)
[43]
  GI50: 95.7 µM (inactive)
[44]
  GI50: > 100 µM (inactive)
[45]
  GI50: 75.2 µM (inactive)
[46]
  GI50: > 100 µM (inactive)
[57]
  GI50: > 100 µM (inactive)
[47]
  GI50: > 100 µM (inactive)
[48]
  GI50: > 100 µM (inactive)
[49]
  GI50: 8.26 µM (inactive)
[50]
  GI50: 9.51 µM (inactive)
[51]
  GI50: 5.73 µM (inactive)
